Here are results for one compound from article PMC5349910, “Discovery of BPR1K871, a quinazoline based, multi-kinase inhibitor for the treatment of AML and solid tumors: Rational design, synthesis, in vitro and in vivo evaluation” (Oncotarget, 2016).

“Also recorded” adds a separate entry of the source. Like-named read-outs stand apart in the source and are kept apart here.

For one assay, the system named is MV4-11 cells. The assay is described as follows: MTS cell viability assay, MV4-11. Format: cell-based, human. The following applies: MTS, 72 h, AML-FLT3-ITD (homozygous), supplement values ± SEM, read-out: MV4-11 EC50. Here is the method: The MTS cell viability assay was conducted as previously described. The MOLM-13 human leukemia cell line was obtained from the German Resource Centre for Biological Material (DSMZ, Braunschweig, Germany); the MV4-11 cell line was purchased from the American Type Culture Collection (ATCC, Manassas, VA, USA). […] To determine cell viability after drug treatment, assay for MOLM-13 and MV4-11 was performed by seeding 10000 cells per well in a 96-well culture plate. […] After 16 h, cells were then treated with vehicle or various concentrations of compound in medium for 72 h. Viable cells were quantified using the MTS method (Promega, Madison, WI, USA) according to the manufacturer's recommended protocol. Results were determined by measuring the absorbance at 490 nm using a plate reader (Victor2; PerkinElmer, Shelton, CT, USA).
In general terms: Tetrazolium dyes change colour on reduction, which living cells bring about.

The test system of the next assay is CL-97 cells. As to the kind of experiment: Anti-proliferative activity, CL-97. The assay is classed as cell-based, human. The following applies: CL97; Human Lung Cancer; supplement values ± SEM; read-out: CL-97 EC50.
Another assay concerns HCT-116 cells. As to the kind of experiment: Anti-proliferative activity, HCT-116. Format: cell-based, human. The following applies: HCT-116; Human Colon Cancer; supplement values ± SEM; read-out: HCT-116 EC50.
The next assay deals with MOLM-13 tumor xenograft. The assay is described as follows: MOLM-13 subcutaneous xenograft model. Format: in vivo. The following applies: nude mice, iv 1, 3 or 10 mg/kg; hydrochloride salt; p < 0.05. Here is the method:
Based on the potent in vitro anti-proliferative activity of BPR1K871, it was planned to investigate the in vivo efficacy. […] Subsequently, based on the PK study, we evaluated the acute toxicity of BPR1K871 in ICR mice (n = 3) by iv administration. […] Next, the antitumor activity of BPR1K871 was evaluated through IV route in MOLM-13 and MV4-11 xenograft models (Figure 5). For this, nude mice were inoculated subcutaneously with MOLM-13 and MV4-11 cells in the left flank. […] For MOLM-13 model, BPR1K871 was injected intravenously at 10 mg/kg daily for 5 days (on days 1–5); also BPR1K871 was intravenously administrated at 3 and 1 mg/kg once a day for two continuous weeks (on days 1–5 and 8–12). For MV4-11 model, BPR1K871 was intravenously administrated at 10, 3 and 1 mg/kg once a day for two continuous weeks (on days 1–5 and 8–12).

The test system of the next assay is FLT3^ITD. The assay is described as follows: KINOMEScan, FLT3 ITD. The following applies: 1000 nM.
The target of the next assay is FLT3^N841I (Homo sapiens, UniProt P36888, N841I). As to the kind of experiment: KINOMEScan, FLT3 N841I. The following applies: read-out: FLT3^N841I % control.

`CN(C)CCCOc1ccc2c(NCCc3cnc(NC(=O)Nc4cccc(Cl)c4)s3)ncnc2c1` [BPR1K871, 1-(3-Chlorophenyl)-3-(5-(2-((7-(3-(dimethylamino)propoxy)quinazolin-4-yl)amino)ethyl)thiazol-2-yl)urea]: the EC50 – broadly, the concentration at which the effect is half-maximal – in the assay with MV4-11 cells (Homo sapiens, MV4-11, 72 h) was around 0.005 µM; with MV4-11 cells (listed as 10 (BPR1K871)) it was 0.004 µM; with CL-97 cells, 2.89 µM; in the assay on HCT-116 cells, 0.141 µM. Also, the “growth / volume of MOLM-13 tumor xenograft vs vehicle” value with MOLM-13 tumor xenograft is recorded as “significantly reduced; also recorded: inhibited”. The “FLT3^ITD % control” value in the assay on FLT3^ITD was below 5.2 % control. At FLT3^N841I, the remaining binding at 1 µM was below 5.2%.
